PubChem BioAssay AID1963978 (Molecular Pharmacology Branch, DTP, NCI, 2024)
pIC50: −log10 of the molar value.

Test system: 616215-338-R-J1-PDC spheroids with HUVEC/MSC, viability
Experiment: Anticancer human tumor 616215-338-R-J1-PDC patient-derived colon adenocarcinoma cell line growth inhibition [PI3K]
Details: for pIC50: curve of first compound; for viability, T/C: stronger effect = lower value
Source text: Combinatorial screen of targeted agents with the PI3K inhibitors inavolisib, alpelisib, duvelisib, and copanlisib in multi-cell type tumor spheroids
A high-throughput screen of multi-cell type tumor spheroids was designed to identify active combinations of targeted small molecules and PI3K pathway inhibitors. Complex spheroids include a stromal component modeled by human endothelial cells (HUVEC) and fibroblasts modeled by human mesenchymal stem cells (MSCs). The concentration ranges selected for each drug and investigational agent were based upon clinically achievable concentrations if the clinical Cmax of the agent was known.
Compounds. The drugs and investigational agents: inavolisib (NSC800729), alpelisib (NSC765974), duvelisib (NSC772469), copanlisib (NSC816437), ipatasertib (NSC767898), afuresertib (NSC778305), talazoparib (NSC767125), sapanisertib (NSC764658), selumetinib (NSC741078), tovorafenib (DAY101, NSC766906), vemurafenib (NSC761431), ravoxertinib (NSC781343), sotorasib (NSC818433), MRTX1133 (NSC 836407), abemaciclib (NSC 768073), palbociclib (NSC758247), venetoclax (NSC 766270), SY5609 (NSC837396), enzalutamide (NSC755605), and darolutamide (NSC825331), were obtained from the National Cancer Institute (NCI) Developmental Therapeutics Program Chemical Repository. The FDA-approved anticancer drug set is available from the NCI Developmental Therapeutics Program. […] The stock solutions were prepared in dimethyl sulfoxide (DMSO, Sigma-Aldrich, St. Louis, MO, cat. D2650) at 800-fold the tested concentration and stored at -70 degrees C prior to their use. All drugs and investigational agents were tested over a range starting from a high concentration at or near the clinical Cmax and decreasing in half-log increments. If the clinical Cmax for an agent had not been determined, the highest concentration tested was 10 microM.
Cell Culture. All cells were maintained in an incubator at 37 degrees C and 5% CO2 with 95% humidity. The PDC lines were cultured according to standard operating procedures established by the NCI PDMR (https://pdmr.cancer.gov/sops/default.htm). All PDCs were thawed and cultured in Matrigel-coated flasks prepared with a working solution of 1X Ham's F-12 nutrient mix, without supplementation (Invitrogen, Waltham, MA, cat. 11765054), 100 U/mL penicillin-streptomycin (Invitrogen, cat. 15140122), and 2.5% Matrigel (Corning Inc., Corning, NY, cat. 354248) for the first three passages. The 354836-022-R-J1-PDC, 475296-252-R-J1-PDC, and 997726-040-R-J2-PDC lines were cultured in 6A media, which includes advanced DMEM/F-12 (Thermo Fisher Scientific, cat. 12634028), 10 mM HEPES (Thermo Fisher Scientific, cat. 15630080), 1X GlutaMAX supplement (Thermo Fisher Scientific, cat. 35050061), 0.1 mg/mL primocin (InvivoGen, San Diego, CA, cat. ant-pm-2), 10% defined fetal bovine serum, heat inactivated (HyClone Laboratories Inc., Logan, UT, cat. SH30070.03HI), 50% L-WRN conditioned media (ATCC, cat. CRL-3276), 1.25 mM N-Acetyl-L-cysteine (Sigma-Aldrich, cat. A9165), 10 mM nicotinamide (Sigma-Aldrich, cat. N0636), 1X B-27 supplement (Thermo Fisher Scientific, cat. 17504044), 1X N-2 supplement (Thermo Fisher Scientific, cat. 17502048), and 10 microM Y-27632 dihydrochloride (Tocris Bioscience, Bristol, United Kingdom, cat. 1254). The 624824-186-R-J2-PDC line was cultured in 6C/Colon 1B media, which includes all 6A media components plus 50 ng/mL human EGF recombinant protein (Thermo Fisher Scientific, cat. PHG0311). […]

[1] = second compound 0.00316 µM, first compound 0.0316 µM
[2] = second compound 0.00316 µM, first compound 0.1 µM
[3] = second compound 0.01 µM, first compound 0.0316 µM
[4] = second compound 0.01 µM, first compound 0.1 µM
[5] = second compound 0.0316 µM, first compound 0.0316 µM
[6] = second compound 0.0316 µM, first compound 0.1 µM
[7] = second compound 0.1 µM, first compound 0.0316 µM
[8] = second compound 0.1 µM, first compound 0.1 µM
[9] = second compound 0.316 µM, first compound 0.0316 µM
[10] = second compound 0.316 µM, first compound 0.1 µM
[11] = second compound 1 µM, first compound 0.0316 µM
[12] = second compound 1 µM, first compound 0.1 µM
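Also: spheroids exposed to agents for seven days before the viability read.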

## C#Cc1c(F)ccc2cc(O)cc(-c3ncc4c(N5CC6CCC(C5)N6)nc(OCC56CCCN5CC(F)C6)nc4c3F)c12 (centres undefined) + COc1c(OCCCN2CCOCC2)ccc2c3n(c(=NC(=O)c4cnc(N)nc4)nc12)CCN3
Second compound 0.00316 µM
  pIC50: < 5.00
Second compound 0.01 µM
  pIC50: 5.11
Second compound 0.0316 µM
  pIC50: 5.08
Second compound 0.1 µM
  pIC50: 5.22
Second compound 0.316 µM
  pIC50: > 7.50
Second compound 1 µM
  pIC50: > 7.50
[1]
  viability, T/C: 95.5%
[2]
  viability, T/C: 89.2%
Second compound 0.00316 µM, first compound 0.316 µM
  viability, T/C: 90.4%
Second compound 0.00316 µM, first compound 1 µM
  viability, T/C: 91.4%
Second compound 0.00316 µM, first compound 3.16 µM
  viability, T/C: 94.9%
Second compound 0.00316 µM, first compound 10 µM
  viability, T/C: 72%
[3]
  viability, T/C: 95.5%
[4]
  viability, T/C: 89.7%
Second compound 0.01 µM, first compound 0.316 µM
  viability, T/C: 91.8%
Second compound 0.01 µM, first compound 1 µM
  viability, T/C: 102%
Second compound 0.01 µM, first compound 3.16 µM
  viability, T/C: 73.6%
Second compound 0.01 µM, first compound 10 µM
  viability, T/C: 43.5%
[5]
  viability, T/C: 101%
[6]
  viability, T/C: 98.1%
Second compound 0.0316 µM, first compound 0.316 µM
  viability, T/C: 95.4%
Second compound 0.0316 µM, first compound 1 µM
  viability, T/C: 106%
Second compound 0.0316 µM, first compound 3.16 µM
  viability, T/C: 81.5%
Second compound 0.0316 µM, first compound 10 µM
  viability, T/C: 44.1%
[7]
  viability, T/C: 94%
[8]
  viability, T/C: 95.9%
Second compound 0.1 µM, first compound 0.316 µM
  viability, T/C: 90.2%
Second compound 0.1 µM, first compound 1 µM
  viability, T/C: 93.7%
Second compound 0.1 µM, first compound 3.16 µM
  viability, T/C: 74.7%
Second compound 0.1 µM, first compound 10 µM
  viability, T/C: 30.3%
[9]
  viability, T/C: 38.2%
[10]
  viability, T/C: 42.4%
Second compound 0.316 µM, first compound 0.316 µM
  viability, T/C: 38.2%
Second compound 0.316 µM, first compound 1 µM
  viability, T/C: 30.9%
Second compound 0.316 µM, first compound 3.16 µM
  viability, T/C: 32.4%
Second compound 0.316 µM, first compound 10 µM
  viability, T/C: 17.9%
[11]
  viability, T/C: 19.8%
[12]
  viability, T/C: 27.1%
Second compound 1 µM, first compound 0.316 µM
  viability, T/C: 17.3%
Second compound 1 µM, first compound 1 µM
  viability, T/C: 10.8%
Second compound 1 µM, first compound 3.16 µM
  viability, T/C: 6.21%
Second compound 1 µM, first compound 10 µM
  viability, T/C: 0.88%

## CC(=O)c1c(C)c2cnc(Nc3ccc(N4CCNCC4)cn3)nc2n(C2CCCC2)c1=O + COc1c(OCCCN2CCOCC2)ccc2c3n(c(=NC(=O)c4cnc(N)nc4)nc12)CCN3
Second compound 0.00316 µM
  pIC50: < 7.00
Second compound 0.01 µM
  pIC50: < 7.00
Second compound 0.0316 µM
  pIC50: < 7.00
Second compound 0.1 µM
  pIC50: < 7.00
Second compound 0.316 µM
  pIC50: > 9.50
Second compound 1 µM
  pIC50: > 9.50
Second compound 0.00316 µM, first compound 0.000316 µM
  viability, T/C: 91%
Second compound 0.00316 µM, first compound 0.001 µM
  viability, T/C: 98.3%
Second compound 0.00316 µM, first compound 0.00316 µM
  viability, T/C: 103%
Second compound 0.00316 µM, first compound 0.01 µM
  viability, T/C: 101%
[1]
  viability, T/C: 88.8%
[2]
  viability, T/C: 94.7%
Second compound 0.01 µM, first compound 0.000316 µM
  viability, T/C: 93.4%
Second compound 0.01 µM, first compound 0.001 µM
  viability, T/C: 95.9%
Second compound 0.01 µM, first compound 0.00316 µM
  viability, T/C: 90.7%
Second compound 0.01 µM, first compound 0.01 µM
  viability, T/C: 99.3%
[3]
  viability, T/C: 101%
[4]
  viability, T/C: 116%
Second compound 0.0316 µM, first compound 0.000316 µM
  viability, T/C: 103%
Second compound 0.0316 µM, first compound 0.001 µM
  viability, T/C: 100%
Second compound 0.0316 µM, first compound 0.00316 µM
  viability, T/C: 99.8%
Second compound 0.0316 µM, first compound 0.01 µM
  viability, T/C: 99.4%
[5]
  viability, T/C: 97.9%
[6]
  viability, T/C: 90.7%
Second compound 0.1 µM, first compound 0.000316 µM
  viability, T/C: 93.1%
Second compound 0.1 µM, first compound 0.001 µM
  viability, T/C: 92.7%
Second compound 0.1 µM, first compound 0.00316 µM
  viability, T/C: 96.1%
Second compound 0.1 µM, first compound 0.01 µM
  viability, T/C: 85.4%
[7]
  viability, T/C: 79.4%
[8]
  viability, T/C: 58.7%
Second compound 0.316 µM, first compound 0.000316 µM
  viability, T/C: 48.4%
Second compound 0.316 µM, first compound 0.001 µM
  viability, T/C: 36.3%
Second compound 0.316 µM, first compound 0.00316 µM
  viability, T/C: 40.9%
Second compound 0.316 µM, first compound 0.01 µM
  viability, T/C: 31.2%
[9]
  viability, T/C: 37.7%
[10]
  viability, T/C: 23.4%
Second compound 1 µM, first compound 0.000316 µM
  viability, T/C: 28.6%
Second compound 1 µM, first compound 0.001 µM
  viability, T/C: 20.7%
Second compound 1 µM, first compound 0.00316 µM
  viability, T/C: 18.9%
Second compound 1 µM, first compound 0.01 µM
  viability, T/C: 16.8%
[11]
  viability, T/C: 18.8%
[12]
  viability, T/C: 18.4%
